Series [1] is described as follows: Solubility of compound in FaSSIF at pH 6.5. It is filed as ADME.
Series [2] in a line: Solubility of the compound in FeSSIF at pH 5.0. It is filed as ADME.
Series [3] in a line: Fold resistance, ratio of EC50 for antiviral activity against wild type HIV-1 NLRepRlucP373S infected in human MT2 cells assessed as inhibition of viral growth in presence of 10% FBS and 40% human serum supplemented with 27mg/mL of human serum albumin to EC50 for antiviral activity against wild type HIV-1 NLRepRlucP373S infected in human MT2 cells assessed as inhibition of viral growth. Type of series: functional, Human immunodeficiency virus 1.

Series [4] has as its system Human immunodeficiency virus 1. The series is described as follows: Antiviral activity against wild type HIV-1 NLRepRlucP373S infected in human MT2 cells assessed as inhibition of viral growth measured after 4 to 5 days in presence of 10% FBS and 40% human serum supplemented with 27 mg/mL of human serum albumin by Dual luciferase reporter assay. Type of series: functional, organism-based. The following applies: Human immunodeficiency virus 1, NLRepRlucP373S. On the technique in general: In a reporter assay the amount or activity of a reporter protein is the signal.

The nature of series [5]: Cytotoxicity against human MT2 cells assessed as reduction in cell viability. Type of series: toxicity, cell-based.
The subject of series [6] is Human immunodeficiency virus 1. The experiment in a line: Antiviral activity against wild type HIV-1 NLRepRlucP373S infected in human MT2 cells assessed as inhibition of viral growth measured after 4 to 5 days by Dual luciferase reporter assay. The following applies: Human immunodeficiency virus 1, NLRepRlucP373S. It is filed as functional, organism-based.
Series [7] has as its system Human immunodeficiency virus 1. The series is described as follows: Antiviral activity against wild type HIV-1 NLRepRlucP373S harboring T332S/V362I/prR41G mutant infected in human MT2 cells assessed as inhibition of viral growth measured after 4 to 5 days by Dual luciferase reporter assay. It is filed as functional, organism-based. As to conditions: Human immunodeficiency virus 1, NLRepRlucP373S.

For series [8], the system named is Human immunodeficiency virus 1. The series is described as follows: Antiviral activity against wild type HIV-1 NLRepRlucP373S harboring deltaV370 mutant infected in human MT2 cells assessed as inhibition of viral growth measured after 4 to 5 days by Dual luciferase reporter assay. It is filed as functional, organism-based. The following applies: Human immunodeficiency virus 1, NLRepRlucP373S.

The test system of series [9] is Human immunodeficiency virus 1. The series is described as follows: Antiviral activity against wild type HIV-1 NLRepRlucP373S harboring V362I/V370A mutant infected in human MT2 cells assessed as inhibition of viral growth measured after 4 to 5 days by Dual luciferase reporter assay. Type of series: functional, organism-based. The following applies: Human immunodeficiency virus 1, NLRepRlucP373S.

As usually defined, the solubility is the dissolved amount per volume that the medium holds. Low readings indicate a poorly soluble substance, high ones a readily soluble substance. What is called EC50 is the concentration giving half of the maximal effect. As usually defined, the CC50 is the concentration giving 50% cytotoxicity.

Turning to `C=C(C)[C@@H]1CC[C@]2(NCCN3CCS(=O)(=O)CC3)CC[C@]3(C)[C@H](CC[C@@H]4[C@@]5(C)CC=C(C6=CC[C@@](CF)(C(=O)O)CC6)C(C)(C)[C@@H]5CC[C@]43C)[C@@H]12.Cl.Cl`, the solubility was 310 µM in [1] and 800 µM in series [2].
In the case of `C=C(C)[C@@H]1CC[C@]2(NCCCC(C)(C)O)CC[C@]3(C)[C@H](CC[C@@H]4[C@@]5(C)CC=C(C6=CC[C@](CF)(C(=O)O)CC6)C(C)(C)[C@@H]5CC[C@]43C)[C@@H]12`, the “fold change (FC)” value in [3] was determined as 6.3. The EC50 in series [4] worked out at 84 nM; in [6], 14 nM; in [7], 44 nM. In addition, in series [5], the CC50 was found to be 7500 nM.
Consider `C=C(C)[C@@H]1CC[C@]2(NCCC3CCOCC3)CC[C@]3(C)[C@H](CC[C@@H]4[C@@]5(C)CC=C(C6=CC[C@](CF)(C(=O)O)CC6)C(C)(C)[C@@H]5CC[C@]43C)[C@@H]12`, for which the “fold change (FC)” value in series [3] is recorded as 33. In addition, the results for the EC50 in series [4], in series [6] and in series [7] were 980 nM, 30 nM and 160 nM, respectively. For the same compound, the CC50 in [5] stood at 13000 nM.
The corresponding values for `C=C(C)[C@@H]1CC[C@]2(NCC[C@]3(O)CC[C@@](C)(O)CC3)CC[C@]3(C)[C@H](CC[C@@H]4[C@@]5(C)CC=C(C6=CC[C@](CF)(C(=O)O)CC6)C(C)(C)[C@@H]5CC[C@]43C)[C@@H]12` are 9.8, 16 nM, 1.7 nM, 6.1 nM and 18000 nM.
The corresponding values for `C=C(C)[C@@H]1CC[C@]2(NCCC(C)C)CC[C@]3(C)[C@H](CC[C@@H]4[C@@]5(C)CC=C(C6=CC[C@](CF)(C(=O)O)CC6)C(C)(C)[C@@H]5CC[C@]43C)[C@@H]12` are 15, 1760 nM, 120 nM, 930 nM and 16000 nM.
The corresponding values for `C=C(C)[C@@H]1CC[C@]2(NCCC3(O)CCN(S(C)(=O)=O)CC3)CC[C@]3(C)[C@H](CC[C@@H]4[C@@]5(C)CC=C(C6=CC[C@](CF)(C(=O)O)CC6)C(C)(C)[C@@H]5CC[C@]43C)[C@@H]12` are 73, 19 nM, 2.6 nM, 8.3 nM and 23000 nM.
As to `C=C(C)[C@@H]1CC[C@]2(NCCC3(O)CCOCC3)CC[C@]3(C)[C@H](CC[C@@H]4[C@@]5(C)CC=C(C6=CC[C@](CF)(C(=O)O)CC6)C(C)(C)[C@@H]5CC[C@]43C)[C@@H]12`, the “fold change (FC)” value in series [3] came to 15. In addition, the EC50 came out at 30 nM in [4], 2 nM in series [6] and 8.2 nM in [7]. Besides, the CC50 in series [5] was found to be 9500 nM.
Regarding `C=C(C)[C@@H]1CC[C@]2(NCCC3CCS(=O)(=O)CC3)CC[C@]3(C)[C@H](CC[C@@H]4[C@@]5(C)CC=C(C6=CC[C@](CF)(C(=O)O)CC6)C(C)(C)[C@@H]5CC[C@]43C)[C@@H]12`, the “fold change (FC)” value in series [3] came out at 14. The EC50 in series [4] worked out at 54 nM; in series [6], 3.9 nM; in series [7], 14 nM. In series [5], the CC50 worked out at 14000 nM.
As to `C=C(C)[C@@H]1CC[C@]2(NCCC3(O)CCC3)CC[C@]3(C)[C@H](CC[C@@H]4[C@@]5(C)CC=C(C6=CC[C@](CF)(C(=O)O)CC6)C(C)(C)[C@@H]5CC[C@]43C)[C@@H]12`, in series [3], the “fold change (FC)” value was 6.4. The concentration giving a half-maximal response (EC50) in series [4] amounted to 36 nM; in series [6], 5.6 nM; in series [7], 16 nM. In addition, in [5], the cytotoxic concentration (CC50) is 12000 nM.
Turning to `C=C(C)[C@@H]1CC[C@]2(NCCN3CCN(S(C)(=O)=O)CC3)CC[C@]3(C)[C@H](CC[C@@H]4[C@@]5(C)CC=C(C6=CC[C@](CF)(C(=O)O)CC6)C(C)(C)[C@@H]5CC[C@]43C)[C@@H]12`, in [3], the “fold change (FC)” value was found to be 9. Also, the EC50 in series [4] came out at 18 nM; in series [6], 2 nM; in [7], 5.7 nM. Further, in [5], the CC50 was found to be 11400 nM.
With `C=C(C)[C@@H]1CC[C@]2(NCCN3CCC(C)(O)CC3)CC[C@]3(C)[C@H](CC[C@@H]4[C@@]5(C)CC=C(C6=CC[C@](CF)(C(=O)O)CC6)C(C)(C)[C@@H]5CC[C@]43C)[C@@H]12`, the “fold change (FC)” value in series [3] is recorded as 16. The concentration giving a half-maximal response (EC50) amounted to 19 nM in series [4], 1.2 nM in series [6] and 5.6 nM in [7]. Moreover, the CC50 in series [5] is 14000 nM.
As to `C=C(C)[C@@H]1CC[C@]2(NCC[C@]3(O)CC[C@H](S(C)(=O)=O)CC3)CC[C@]3(C)[C@H](CC[C@@H]4[C@@]5(C)CC=C(C6=CC[C@](CF)(C(=O)O)CC6)C(C)(C)[C@@H]5CC[C@]43C)[C@@H]12`, the “fold change (FC)” value in series [3] is on record as 4.1. For the same compound, the EC50 turned out to be 5.9 nM in series [4], 1.5 nM in series [6] and 4.6 nM in series [7]. Moreover, in series [5], the CC50 stood at 16000 nM.
The corresponding values for `C=C(C)[C@@H]1CC[C@]2(NCCC3(O)CCN(C(C)=O)CC3)CC[C@]3(C)[C@H](CC[C@@H]4[C@@]5(C)CC=C(C6=CC[C@](CF)(C(=O)O)CC6)C(C)(C)[C@@H]5CC[C@]43C)[C@@H]12` are 14, 24 nM, 1.7 nM, 6.7 nM and 14000 nM.
The corresponding values for `C=C(C)[C@@H]1CC[C@]2(NCCC3(O)COC3)CC[C@]3(C)[C@H](CC[C@@H]4[C@@]5(C)CC=C(C6=CC[C@@](CF)(C(=O)O)CC6)C(C)(C)[C@@H]5CC[C@]43C)[C@@H]12` are 14, 27 nM, 1.9 nM, 12 nM and 13000 nM.
As to `C=C(C)[C@@H]1CC[C@]2(NCCC(C)(C)O)CC[C@]3(C)[C@H](CC[C@@H]4[C@@]5(C)CC=C(C6=CC[C@](CF)(C(=O)O)CC6)C(C)(C)[C@@H]5CC[C@]43C)[C@@H]12`, in series [3], the “fold change (FC)” value was 14. Moreover, the 50% effective concentration (EC50) is 26 nM in series [4], 1.9 nM in [6] and 8.3 nM in [7]. The CC50 in [5] was 8300 nM.
On to `C=C(C)[C@@H]1CC[C@]2(NCC[C@]3(O)CC[C@](C)(O)CC3)CC[C@]3(C)[C@H](CC[C@@H]4[C@@]5(C)CC=C(C6=CC[C@@](CF)(C(=O)O)CC6)C(C)(C)[C@@H]5CC[C@]43C)[C@@H]12`, for which the “fold change (FC)” value in series [3] came out at 4.6. Moreover, the 50% effective concentration (EC50) in series [4] is 14 nM; in [6] it was 3 nM; in series [7], 9.2 nM. For the same compound, the CC50 in series [5] turned out to be 11000 nM.
The corresponding values for `C=C(C)[C@@H]1CC[C@]2(NCC[C@]3(O)CC[C@@H](S(C)(=O)=O)CC3)CC[C@]3(C)[C@H](CC[C@@H]4[C@@]5(C)CC=C(C6=CC[C@@](CF)(C(=O)O)CC6)C(C)(C)[C@@H]5CC[C@]43C)[C@@H]12` are 13, 30 nM, 2.3 nM, 6.5 nM and 17000 nM.
The corresponding values for `C=C(C)[C@@H]1CC[C@]2(NCC(C)(C)O)CC[C@]3(C)[C@H](CC[C@@H]4[C@@]5(C)CC=C(C6=CC[C@](CF)(C(=O)O)CC6)C(C)(C)[C@@H]5CC[C@]43C)[C@@H]12` are 9.7, 147 nM, 15 nM, 50 nM and 8700 nM.
The corresponding values for `C=C(C)[C@@H]1CC[C@]2(NCCC3(O)CCS(=O)(=O)CC3)CC[C@]3(C)[C@H](CC[C@@H]4[C@@]5(C)CC=C(C6=CC[C@](CF)(C(=O)O)CC6)C(C)(C)[C@@H]5CC[C@]43C)[C@@H]12` are 83, 19 nM, 2.3 nM, 7.7 nM and 14000 nM.
As to `C=C(C)[C@@H]1CC[C@]2(NCCN3CCOCC3)CC[C@]3(C)[C@H](CC[C@@H]4[C@@]5(C)CC=C(C6=CC[C@](CF)(C(=O)O)CC6)C(C)(C)[C@@H]5CC[C@]43C)[C@@H]12`, in series [3], the “fold change (FC)” value came out at 12. Further, the EC50 in series [4] was 53 nM; in series [6], 4.5 nM; in [7], 18 nM. Further, in series [5], the half-maximal cytotoxic concentration (CC50) worked out at 7700 nM.
In the case of `C=C(C)[C@@H]1CC[C@]2(NCCN3CCS(=O)(=O)CC3)CC[C@]3(C)[C@H](CC[C@@H]4[C@@]5(C)CC=C(C6=CCC(CF)(C(=O)O)CC6)C(C)(C)[C@@H]5CC[C@]43C)[C@@H]12` (single isomer, unassigned), the “fold change (FC)” value in series [3] worked out at 3.3.
For `C=C(C)[C@@H]1CC[C@]2(NCCN3CCS(=O)(=O)CC3)CC[C@]3(C)[C@H](CC[C@@H]4[C@@]5(C)CC=C(c6ccc(C(=O)O)cc6)C(C)(C)[C@@H]5CC[C@]43C)[C@@H]12` [BMS-955176], the “fold change (FC)” value in series [3] turned out to be 2. For the same compound, the results for the EC50 in [8], in [9] and in series [7] were 6 nM, 3 nM and 700 nM, respectively. In [5], the CC50 turned out to be 13000 nM.

(Values after ChEMBL document CHEMBL5236606, “Synthesis, Structure-Activity Relationships, and In Vivo Evaluation of Novel C-17 Amine Derivatives Based on GSK3640254 as HIV-1 Maturation Inhibitors with Broad Spectrum Activity” (J Med Chem, 2022).)
